One test concerns cancer cell. Put plainly: Cell viability assay (resazurin). The following applies: 72 h; 3 days with compound, resazurin fluorescence; cell line not named. The test is classed as cell-based. In short, it runs like this:
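Cells in DMEM GlutaMAX or line-appropriate medium are exposed to compound for 3 days at 37 °C, 5% CO2. Viability is read as resazurin fluorescence (Ex544/Em590) after 2 h incubation. In the 384-well format, cells are seeded onto 11 pre-dispensed concentrations (final DMSO <1%) and read after 3 h resazurin.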

The next test addresses MTH1 (Homo sapiens, UniProt P36639). Put plainly: MTH1 enzymatic assay and IC50 value determination (malachite green, 96- and 384-well format). In kind it is biochemical. To be noted: hydrolysis of dGTP (100 μM), MTH1 6 nM, pyrophosphatase-coupled malachite green, 15 minutes at 22° C. The essentials: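 MTH1 (6 nM) hydrolysed dGTP (100 μM) for 15 min at 22 °C in Tris-acetate buffer with Mg2+, DTT, Tween 20 and excess pyrophosphatase, 1% DMSO. Pi detected with malachite green at 630 nm. IC50 from nonlinear 4-parameter fit of 11–12-point dilution series.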

The structures appear in SMILES notation.

For the molecule `Cc1nc2ccc(NCC(C)(C)CNc3cc(-c4cccc(Cl)c4C)nc(N)n3)cc2s1` [Example 165, 6-(3-chloro-2-methyl-phenyl)-N4-[2,2-dimethyl-3-[(2-methyl-1,3-benzothiazol-6-yl)amino]propyl]pyrimidine-2,4-diamine], the 50% inhibitory concentration (IC50) was less than 500 nM in the test on cancer cell and less than 200 nM at MTH1.
As for `Cc1cc(Cl)cc(-c2cc(NCCc3ccc(S(N)(=O)=O)cc3)nc(N)n2)c1F` [Example 73, 4-(2-{[2-amino-6-(5-chloro-2-fluoro-3-methylphenyl)pyrimidin-4-yl]amino}ethyl)benzene-1-sulfonamide], the IC50 in the test on cancer cell is less than 500 nM; on MTH1, less than 200 nM.
In the case of `CCNC(=O)Nc1cccc(CCNc2cc(-c3cccc(Cl)c3C)nc(N)n2)c1` [Example 148, 1-[3-[2-[[2-amino-6-(3-chloro-2-methyl-phenyl)pyrimidin-4-yl]amino]ethyl]phenyl]-3-ethyl-urea], the IC50 with cancer cell was less than 500 nM; on MTH1, less than 200 nM.
As for `Cc1c(Cl)cccc1-c1cc(NCCc2ccc(NS(=O)(=O)C(C)C)cc2)nc(N)n1` [Example 86, N-[4-(2-{[2-amino-6-(3-chloro-2-methylphenyl)pyrimidin-4-yl]amino}ethyl)phenyl]propane-2-sulfonamide], the figures for the half-maximal inhibitory concentration (IC50) in the test on cancer cell and against MTH1 were less than 500 nM and less than 200 nM, respectively.
As for `Cc1c(Cl)cccc1-c1cc(NCCc2cccc([N+](=O)[O-])c2)nc(N)n1` [Example 95, 6-(3-chloro-2-methylphenyl)-4-N-[2-(3-nitrophenyl)ethyl]pyrimidine-2,4-diamine], the 50% inhibitory concentration (IC50) with cancer cell was less than 500 nM; on MTH1, less than 200 nM.
As for `Cc1c(-c2cc(NCCc3ccc(C(N)=O)cc3)nc(N)n2)ccc(Cl)c1Cl` [Example 78, 4-(2-{[2-amino-6-(3,4-dichloro-2-methylphenyl)pyrimidin-4-yl]amino}ethyl)benzamide], the IC50 in the test on cancer cell is less than 500 nM; against MTH1, less than 200 nM.
The corresponding values for `Cc1c(Cl)cccc1-c1cc(NCCNc2cccc(S(=O)(=O)C(C)C)c2)nc(N)n1` [Example 166, 6-(3-Chloro-2-methyl-phenyl)-N4-[2-(3-isopropylsulfonylanilino)ethyl]pyrimidine-2,4-diamine] are less than 500 nM and less than 200 nM.
With `Cc1c(Cl)cccc1-c1cc(NCCc2cccc(NC(=O)N(C)C)c2)nc(N)n1` [Example 151, 3-[3-[2-[[2-amino-6-(3-chloro-2-methyl-phenyl)pyrimidin-4-yl]amino]ethyl]phenyl]-1,1-dimethyl-urea], the half-inhibitory concentration (IC50) was less than 500 nM in the test with cancer cell and less than 200 nM on MTH1.
`Cc1nc2ccc(NCCNc3cc(-c4cccc(Cl)c4C)nc(N)n3)cc2s1` [Example 101, 6-(3-chloro-2-methyl-phenyl)-N4-[2-[(2-methyl-1,3-benzothiazol-6-yl)amino]ethyl]pyrimidine-2,4-diamine]: the IC50 in the test with cancer cell was less than 500 nM; at MTH1, less than 200 nM.
Regarding `CNS(=O)(=O)c1ccc(NCCCNc2cc(-c3cccc(Cl)c3C)nc(N)n2)cc1` [Example 144, 4-[3-[[2-amino-6-(3-chloro-2-methyl-phenyl)pyrimidin-4-yl]amino]propylamino]-N-methyl-benzenesulfonamide], the half-inhibitory concentration (IC50) with cancer cell was less than 500 nM; at MTH1 it was less than 200 nM.
Turning to `Cc1c(Cl)cc(Cl)cc1-c1cc(NCCc2ccc(C(N)=O)cc2)nc(N)n1` [Example 76, 4-(2-{[2-amino-6-(3,5-dichloro-2-methylphenyl)pyrimidin-4-yl]amino}ethyl)benzamide], the IC50 with cancer cell was less than 500 nM; against MTH1, less than 200 nM.
Consider `Cc1cc(C)c(-c2cc(NCCc3ccc(S(N)(=O)=O)cc3)nc(N)n2)cc1C` [Example 65, 4-(2-{[2-amino-6-(2,4,5-trimethylphenyl)pyrimidin-4-yl]amino}ethyl)benzene-1-sulfonamide], for which the results for the IC50 in the test with cancer cell and against MTH1 were less than 500 nM and less than 200 nM, respectively.
Regarding `Cc1c(Cl)cccc1-c1cc(NCCc2ccc(S(=O)(=O)NC3COC3)cc2)nc(N)n1` [Example 209, 4-(2-{[2-amino-6-(3-chloro-2-methylphenyl)pyrimidin-4-yl]amino}ethyl)-N-(oxetan-3-yl)benzene-1-sulfonamide], the IC50 in the test on cancer cell is less than 500 nM; at MTH1 it was less than 200 nM.
Regarding `CC(=O)Nc1ccc(NCCNc2cc(-c3cccc(Cl)c3C)nc(N)n2)cc1C` [Example 189, N-[4-[2-[[2-amino-6-(3-chloro-2-methyl-phenyl)pyrimidin-4-yl]amino]ethylamino]-2-methyl-phenyl]acetamide], the half-inhibitory concentration (IC50) is less than 500 nM in the test on cancer cell and less than 200 nM against MTH1.
Regarding `Cc1c(Cl)cccc1-c1cc(NCCc2ccc(NC(=O)NC(C)C)cc2)nc(N)n1` [Example 61, 1-[4-(2-{[2-amino-6-(3-chloro-2-methylphenyl)pyrimidin-4-yl]amino}ethyl)phenyl]-3-(propan-2-yl)urea], the concentration for half-maximal inhibition (IC50) was less than 500 nM with cancer cell and less than 200 nM against MTH1.
The corresponding values for `CNS(=O)(=O)c1ccc(NCCNc2cc(-c3cccc(C)c3C)nc(N)n2)cc1` [Example 21, 4-[(2-{[2-amino-6-(2,3-dimethylphenyl)pyrimidin-4-yl]amino}ethyl)amino]-N-methylbenzene-1-sulfonamide] are less than 500 nM and less than 200 nM.
Regarding `Cc1c(Cl)cccc1-c1cc(NCCOc2ccc(S(N)(=O)=O)cn2)nc(N)n1` [Example 213, 6-(2-(2-amino-6-(3-chloro-2-methylphenyl)pyrimidin-4-ylamino)ethoxy)pyridine-3-sulfonamide], the IC50 with cancer cell is less than 500 nM; at MTH1 it was less than 200 nM.
With `COC(=O)c1ccc(CCNc2cc(-c3cccc(Cl)c3C)nc(N)n2)cc1` [Example 182, methyl 4-[2-[[2-amino-6-(3-chloro-2-methyl-phenyl)pyrimidin-4-yl]amino]ethyl]benzoate], the IC50 was less than 500 nM in the test on cancer cell and less than 200 nM against MTH1.
With `Cc1c(Cl)cccc1-c1cc(NCCc2ccc(C(N)=O)c(F)c2)nc(N)n1` [Example 171, 4-[2-[[2-amino-6-(3-chloro-2-methyl-phenyl)pyrimidin-4-yl]amino]ethyl]-2-fluoro-benzamide], the IC50 in the test with cancer cell is less than 500 nM; at MTH1 it was less than 200 nM.
The corresponding values for `Cc1c(Cl)cccc1-c1cc(NCCc2cccc(S(N)(=O)=O)c2)nc(N)n1` [Example 53, 3-(2-{[2-amino-6-(3-chloro-2-methylphenyl)pyrimidin-4-yl]amino}ethyl)benzene-1-sulfonamide] are less than 500 nM and less than 200 nM.
As for `Cc1c(Cl)cccc1-c1cc(NCCCOc2ccc(C(N)=O)cn2)nc(N)n1` [Example 206, 6-(3-{[2-amino-6-(3-chloro-2-methylphenyl)pyrimidin-4-yl]amino}propoxy)pyridine-3-carboxamide], the concentration for half-maximal inhibition (IC50) in the test with cancer cell was less than 500 nM; against MTH1, less than 200 nM.
Turning to `Cc1c(Cl)cccc1-c1cc(NCCSc2nccc(C(N)=O)n2)nc(N)n1` [Example 174, 2-[2-[[2-amino-6-(3-chloro-2-methyl-phenyl)pyrimidin-4-yl]amino]ethylsulfanyl]pyrimidine-4-carboxamide], the values for the half-maximal inhibitory concentration (IC50) in the test on cancer cell and on MTH1 were less than 500 nM and less than 200 nM, respectively.
Taken in the same sequence, the figures for `COc1cc(C)c(-c2cc(NCCc3ccc(S(N)(=O)=O)cc3)nc(N)n2)cc1C` [Example 66, 4-(2-{[2-amino-6-(4-methoxy-2,5-dimethylphenyl)pyrimidin-4-yl]amino}ethyl)benzene-1-sulfonamide] were less than 500 nM and less than 200 nM.

As a reminder, the IC50 is the concentration at which inhibition is half-maximal.

The values above are taken from patent US10179790B2 (THOMAS HELLEDAYS STIFTELSE FOR MEDICINSK FORSKNING, priority 2014, dated 2019).
